Measured values reported in patent US20250263400A1, “GCN2 MODULATOR COMPOUNDS” (Alesta Therapeutics BV, priority 2022, published 2025).

molecular target: GCN2 (Homo sapiens (Human), UniProt Q9P2K8); experiment: GCN2 enzyme assay; assay type: biochemical
Description: For GCN2 enzyme assays, testing compounds were prepared at proper concentrations in DMSO solution. IC50 values were calculated from a remaining activity using read conversion ratio.

Sequence of GCN2 (Q9P2K8 whole entry, species assumed): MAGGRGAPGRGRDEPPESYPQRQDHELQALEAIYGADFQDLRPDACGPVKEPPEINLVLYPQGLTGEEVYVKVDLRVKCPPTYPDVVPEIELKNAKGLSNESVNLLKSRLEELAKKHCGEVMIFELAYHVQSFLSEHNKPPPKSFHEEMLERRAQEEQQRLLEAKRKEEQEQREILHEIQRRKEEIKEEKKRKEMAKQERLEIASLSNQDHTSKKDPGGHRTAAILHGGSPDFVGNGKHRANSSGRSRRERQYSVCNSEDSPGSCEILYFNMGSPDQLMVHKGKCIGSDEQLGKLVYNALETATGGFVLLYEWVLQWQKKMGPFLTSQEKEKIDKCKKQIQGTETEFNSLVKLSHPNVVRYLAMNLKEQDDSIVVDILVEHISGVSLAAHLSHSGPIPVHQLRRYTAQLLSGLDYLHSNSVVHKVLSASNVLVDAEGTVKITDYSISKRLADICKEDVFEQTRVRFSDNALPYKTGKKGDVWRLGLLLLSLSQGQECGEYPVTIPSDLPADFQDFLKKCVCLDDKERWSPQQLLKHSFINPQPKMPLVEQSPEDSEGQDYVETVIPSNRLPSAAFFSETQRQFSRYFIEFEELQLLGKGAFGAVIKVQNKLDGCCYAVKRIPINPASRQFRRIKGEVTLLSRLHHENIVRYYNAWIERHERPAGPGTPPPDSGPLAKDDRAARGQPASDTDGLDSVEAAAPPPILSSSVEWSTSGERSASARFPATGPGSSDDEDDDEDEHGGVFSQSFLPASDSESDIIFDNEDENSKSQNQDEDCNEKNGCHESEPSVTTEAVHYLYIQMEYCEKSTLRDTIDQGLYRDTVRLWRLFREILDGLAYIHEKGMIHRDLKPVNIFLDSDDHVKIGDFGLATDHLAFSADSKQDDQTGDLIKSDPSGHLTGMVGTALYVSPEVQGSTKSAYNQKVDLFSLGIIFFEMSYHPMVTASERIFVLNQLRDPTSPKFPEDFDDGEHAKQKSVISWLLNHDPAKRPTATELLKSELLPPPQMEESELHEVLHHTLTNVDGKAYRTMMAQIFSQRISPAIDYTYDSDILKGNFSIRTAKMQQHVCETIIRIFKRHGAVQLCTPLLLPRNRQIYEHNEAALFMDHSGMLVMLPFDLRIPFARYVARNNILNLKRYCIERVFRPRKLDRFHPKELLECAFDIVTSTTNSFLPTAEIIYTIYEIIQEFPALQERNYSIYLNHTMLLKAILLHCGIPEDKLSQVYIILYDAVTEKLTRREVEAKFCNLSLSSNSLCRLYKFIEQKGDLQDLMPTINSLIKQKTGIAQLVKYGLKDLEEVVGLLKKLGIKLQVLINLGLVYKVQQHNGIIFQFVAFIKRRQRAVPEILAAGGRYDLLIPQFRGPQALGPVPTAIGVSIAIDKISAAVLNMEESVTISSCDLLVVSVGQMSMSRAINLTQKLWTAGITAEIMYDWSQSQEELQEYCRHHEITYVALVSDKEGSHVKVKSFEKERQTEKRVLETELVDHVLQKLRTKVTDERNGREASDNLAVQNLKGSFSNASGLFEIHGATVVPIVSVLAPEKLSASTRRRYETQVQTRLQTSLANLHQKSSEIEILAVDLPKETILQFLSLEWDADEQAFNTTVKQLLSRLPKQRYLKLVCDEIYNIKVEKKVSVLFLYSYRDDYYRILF

SMILES	IC50 [nM]
Nc1ncc2cc(-c3c(F)cnc(NS(=O)(=O)c4ccccc4Cl)c3F)ccc2n1 [Compound 75, N-(4-(2-aminoquinazolin-6-yl)-3,5-difluoropyridin-2-yl)-2-chlorobenzenesulfon-amide]	367
CCc1cc(-c2c(F)ccc(NS(=O)(=O)c3ccccc3Cl)c2F)cc2cnc(N[C@H]3CC[C@H](NC)CC3)nc12 [Compound 65, 2-chloro-N-(3-(8-ethyl-2-(((1R,4R)-4-(methylamino)cyclo-hexyl)amino)quina-zolin-6-yl)-2,4-difluorophenyl)ben-zenesulfonamide]	43.7
COc1ncc(Cl)cc1S(=O)(=O)Nc1ccc(F)c(-c2ccc3nc(NC4CCS(=O)(=O)C4)ncc3c2)c1F (stereo not shown) [Compound 23, 5-chloro-N-(3-(2-((1,1-dioxidotetrahydro-thiophen-3-yl)amino)quinazo-lin-6-yl)-2,4-difluorophenyl)-2-methoxypyridine-3-sulfonamide]	6.66
CCc1cc(-c2c(F)ccc(NS(=O)(=O)c3cc(Cl)cnc3OC)c2F)cc2cnc(N[C@H]3CC[C@H](NC)CC3)nc12 [Compound 45, 5-chloro-N-(3-(8-ethyl-2-(((1R,4R)-4-(methylamino)cyclo-hexyl)amino)quina-zolin-6-yl)-2,4-difluorophenyl)-2-methoxypyridine-3-sulfonamide]	88.3
COc1ncc(Cl)cc1S(=O)(=O)Nc1ccc(F)c(-c2ccc3nc(N[C@H]4CC[C@H](N(C)C)CC4)ncc3c2)c1F [Compound 61, 5-chloro-N-(3-(2-(((1R,4R)-4-(dimethylamino)cy-clohexyl)amino)quinazolin-6-yl)-2,4-difluorophenyl)-2-methoxypyridine-3-sulfonamide]	2.35
CCc1cc(-c2c(Cl)cnc(NS(=O)(=O)c3cc(Cl)cc(CO)c3Cl)c2Cl)cc2cnc(N)nc12 [Compound 35, N-(4-(2-amino-8-ethylquinazolin-6-yl)-3,5-dichloropyridin-2-yl)-2,5-dichloro-3-(hydroxymethyl)ben-zenesulfonamide]	8.82
CN(C)[C@H]1CC[C@H](Nc2ncc3cc(-c4c(F)ccc(NS(=O)(=O)c5ccccc5Cl)c4F)ccc3n2)CC1 [Compound 70, 2-chloro-N-(3-(2-(((1R,4R)-4-(dimethylamino)cy-clohexyl)amino)quinazolin-6-yl)-2,4-difluorophenyl)ben-zenesulfonamide]	81.2
COCCNC(=O)N1CC[C@@H](Nc2ncc3cc(-c4c(F)ccc(NS(=O)(=O)c5cc(Cl)cc(CO)c5Cl)c4F)ccc3n2)C1 [Compound 1, (R)-3-((6-(3-((2,5-dichloro-3-(hydroxymethyl)phe-nyl)sulfonamido)-2,6-difluorophenyl)quina-zolin-2-yl)amino)-N-(2-methoxyethyl)pyr-rolidine-1-carboxamide]	10.4
COCCNC[C@@H]1CCC(Nc2ncc3cc(-c4c(Cl)ccc(NS(=O)(=O)c5cc(Cl)cnc5OC)c4Cl)ccc3n2)C1 (stereo partly drawn) [Compound 7, 5-chloro-N-(2,4-dichloro-3-(2-(((1R,3R)-3-(((2-methoxyethyl)ami-no)methyl)cyclopent-yl)amino)quina-zolin-6-yl)phenyl)-2-methoxypyridine-3-sulfonamide]	12.6
COCCNC(=O)[C@H]1CC[C@H](Nc2ncc3cc(-c4c(Cl)ccc(NS(=O)(=O)c5cc(Cl)cnc5OC)c4Cl)ccc3n2)CC1 [Compound 21, (1R,4R)-4-((6-(2,6-dichloro-3-((5-chloro-2-methoxypyridine)-3-sulfonamido)phenyl)quinazolin-2-yl)amino)-N-(2-methoxyethyl)cyclo-hexane-1-carboxamide]	31.9
COCCNC[C@@H]1CC[C@@H](Nc2ncc3cc(-c4c(F)ccc(NS(=O)(=O)c5cc(Cl)cc(CO)c5Cl)c4F)ccc3n2)C1 [Compound 2, 2,5-dichloro-N-(2,4-difluoro-3-(2-(((1R,3R)-3-(((2-methoxyethyl)ami-no)methyl)cyclopent-yl)amino)quina-zolin-6-yl)phenyl)-3-(hydroxymethyl)ben-zenesulfonamide]	2.63
COCCNC[C@@H]1CC[C@@H](Nc2ncc3cc(-c4c(F)ccc(NS(=O)(=O)c5cc(Cl)cnc5OC)c4F)ccc3n2)C1 [Compound 13, 5-chloro-N-(2,4-difluoro-3-(2-(((1R,3R)-3-(((2-methoxyethyl)ami-no)methyl)cyclopent-yl)amino)quina-zolin-6-yl)phenyl)-2-methoxypyridine-3-sulfonamide]	3.96
COCCNC(=O)N1CC[C@@H](Nc2ncc3cc(-c4c(Cl)ccc(NS(=O)(=O)c5cc(Cl)cnc5OC)c4Cl)ccc3n2)C1 [Compound 18]	41.6
CN(C)[C@H]1CC[C@H](Nc2ncc3cc(-c4c(F)ccc(NS(=O)(=O)c5cc(Cl)cc(CO)c5Cl)c4F)ccc3n2)CC1 [Compound 53, 2,5-dichloro-N-(3-(2-(((1R,4R)-4-(dimethylamino)cy-clohexyl)amino)quinazolin-6-yl)-2,4-difluorophenyl)-3-(hydroxymethyl)ben-zenesulfonamide]	1.11
Cc1ncc(Cl)cc1S(=O)(=O)Nc1ccc(F)c(-c2ccc3nc(N[C@H]4CC[C@H](N(C)C)CC4)ncc3c2)c1F [Compound 6, 5-chloro-N-(3-(2-(((1R,4R)-4-(dimethylamino)cy-clohexyl)amino)quinazolin-6-yl)-2,4-difluorophenyl)-2-methylpyridine-3-sulfonamide]	3.36

The remaining compounds from weak to strong by IC50, led by results:

IC50 [nM]	SMILES
63.2	CN[C@H]1CC[C@H](Nc2ncc3cc(-c4c(F)ccc(NS(=O)(=O)c5ccccc5Cl)c4F)ccc3n2)CC1 [Compound 66, 2-chloro-N-(2,4-difluoro-3-(2-(((1R,4R)-4-(methylamino)cyclo-hexyl)amino)quina-zolin-6-yl)phenyl)benzene-sulfonamide]
26.8	CCc1cc(-c2c(F)ccc(NS(=O)(=O)c3ccccc3Cl)c2F)cc2cnc(N[C@H]3CC[C@H](N(C)C)CC3)nc12 [Compound 64, 2-chloro-N-(3-(2-(((1R,4R)-4-(dimethylamino)cy-clohexyl)amino)-8-ethylquinazolin-6-yl)-2,4-difluorophenyl)ben-zenesulfonamide]
25.3	COc1ncc(Cl)cc1S(=O)(=O)Nc1ccc(Cl)c(-c2ccc3nc(NC4CCS(=O)(=O)C4)ncc3c2)c1Cl (stereo not shown) [Compound 27, 5-chloro-N-(2,4-dichloro-3-(2-((1,1-dioxidotetrahydro-thiophen-3-yl)amino)quinazo-lin-6-yl)phenyl)-2-methoxypyridine-3-sulfonamide]
19.4	Nc1ncc2cc(-c3c(Cl)cnc(NS(=O)(=O)c4ccccc4Cl)c3Cl)ccc2n1 [Compound 73, N-(4-(2-aminoquinazolin-6-yl)-3,5-dichloropyridin-2-yl)-2-chlorobenzenesulfon-amide]
8.33	CCc1cc(-c2c(Cl)cnc(NS(=O)(=O)c3cc(Cl)cnc3OC)c2Cl)cc2cnc(N)nc12 [Compound 40, N-(4-(2-amino-8-ethylquinazolin-6-yl)-3,5-dichloropyridin-2-yl)-5-chloro-2-methoxypyridine-3-sulfonamide]
7.62	O=S1(=O)CCC(Nc2ncc3cc(-c4c(F)ccc(NS(=O)(=O)c5cc(Cl)cc(CO)c5Cl)c4F)ccc3n2)C1 (stereo not shown) [Compound 12, 2,5-dichloro-N-(3-(2-((1,1-dioxidotetrahydro-thiophen-3-yl)amino)quinazo-lin-6-yl)-2,4-difluorophenyl)-3-(hydroxymethyl)ben-zenesulfonamide]
7.32	CCc1cc(-c2c(F)cnc(NS(=O)(=O)c3cc(Cl)cnc3OC)c2F)cc2cnc(N)nc12 [Compound 38, N-(4-(2-amino-8-ethylquinazolin-6-yl)-3,5-difluoropyridin-2-yl)-5-chloro-2-methoxypyridine-3-sulfonamide]
5.43	COCCNC(=O)[C@H]1C[C@H](Nc2ncc3cc(-c4c(F)ccc(NS(=O)(=O)c5cc(Cl)cc(CO)c5Cl)c4F)ccc3n2)CN1 [Compound 3, (2R,4S)-4-((6-(3-((2,5-dichloro-3-(hydroxymethyl)phe-nyl)sulfonamido)-2,6-difluorophenyl)quin-zolin-2-yl)amino)-N-(2-methoxyethyl)pyr-rolidine-2-carboxamide]
5.13	CCc1cc(-c2c(F)ccc(NS(=O)(=O)c3cc(Cl)cnc3OC)c2F)cc2cnc(N[C@H]3CC[C@H](N)CC3)nc12 [Compound 52, N-(3-(2-(((1R,4R)-4-aminocyclohexyl)amino)-8-ethylquinazolin-6-yl)-2,4-difluorophenyl)-5-chloro-2-methoxypyridine-3-sulfonamide]
4.18	COCCNC(=O)[C@H]1C[C@H](Nc2ncc3cc(-c4c(F)ccc(NS(=O)(=O)c5cc(Cl)cnc5OC)c4F)ccc3n2)CN1 [Compound 15, (2R,4S)-4-((6-(3-((5-chloro-2-methoxypyridine)-3-sulfonamido)-2,6-difluorophenyl)quina-zolin-2-yl)amino)-N-(2-methoxyethyl)pyr-rolidine-2-carboxamide]
3.94	CN(C)CCNC(=O)[C@H]1CC[C@H](Nc2ncc3cc(-c4c(F)ccc(NS(=O)(=O)c5cc(Cl)cc(CO)c5Cl)c4F)ccc3n2)CC1 [Compound 4, (1R,4R)-4-((6-(3-((2,5-dichloro-3-(hydroxymethyl)phe-nyl)sulfonamido)-2,6-difluorophenyl)quina-zolin-2-yl)amino)-N-(2-(dimethylamino)eth-yl)cyclohexane-1-carboxamide]
3.39	COc1ncc(Cl)cc1S(=O)(=O)Nc1ccc(F)c(-c2ccc3nc(N[C@@H]4CC[C@@H](C(N)=O)C4)ncc3c2)c1F [Compound 14, (1R,3R)-3-((6-(3-((5-chloro-2-methoxypyridine)-3-sulfonamido)-2,6-difluorophenyl)quinaz-zolin-2-yl)amino)cyclopent-ane-1-carboxamide 2,2,2-trifluoroacetate]
3.23	CN[C@H]1CC[C@H](Nc2ncc3cc(-c4c(F)ccc(NS(=O)(=O)c5cc(Cl)cnc5OC)c4F)ccc3n2)CC1 [Compound 48, 5-chloro-N-(2,4-difluoro-3-(2-(((1R,4R)-4-(methylamino)cyclo-hexyl)amino)quina-zolin-6-yl)phenyl)-2-methoxypyridine-3-sulfonamide]
